Earlier results in patent publication US20160114057A1, “MODULAR PROTEIN DRUG CONJUGATE THERAPEUTIC” (ZYMEWORKS INC., priority 2013, published 2016).
Values joined by “and” are separate entries in the source; they are usually repeats but may differ in a detail not shown here. Identical values can stand only once. Like-named read-outs stand apart in the source and are kept apart here. *1 amine or outer side, *2 acyl side, *3 side chain or, on linkers, in order; H or OH if unused. Where a SMILES comes first, the peptide text is derived from it. Bridges are numbered along the chain shown (N, C = ends). [ ]: non-standard residue; d: D form. The star is where a group is joined. X2 = CC[C@@H](C)C[C@H](N[*:1])C(=O)[*:2]; X1 = CC[C@H](C)CC(N[*:1])C(=O)[*:2]; d(aThr) = C[C@@H](O)[C@@H](N)C(=O)O; NMe2Val = CC(C)[C@@H](C(=O)*)N(C)C; NMeT = CN[C@H](C(=O)O)[C@@H](C)O; Suc = O=C(CCC(=O)[*:2])[*:1]; NMeV = CN[C@H](C(=O)O)C(C)C; NHBn = c1ccc(CN*)cc1; Dha = C=C(N)C(=O)O

Columns and labels:
[1] = KB-31 (melanoma)
[2] = not given; remark: listed apart in the source
[3] = in vivo
[4] = system: NCI tumor panel (60 cell line); conditions: for IC50: range over cell lines
[5] = human, in vivo

For `C=CC[C@@H](CC/C(C)=C/C=C/CC/C=C\[C@@H]1CSC([C@@H]2C[C@@H]2C)=N1)OC` [Curacin A and analogs], the IC50 (various tumor cell lines; broad activity (cancer cell lines), read-out: Activity (IC50)) is given as 1 to 29 nM.
For `C=C(C)[C@@H]1NC(=O)[C@@H](NC)[C@@H](O)c2cc(Cl)c(O)c(c2)O[C@](C)(CC)[C@@H](C(=O)N2CC=C[C@H]2C(=O)N/C(C(=O)N/C(=C/C(=O)O)C(=O)O)=C(\C)CC)NC1=O` [Phomopsin A], the “activity in cell culture (in words)” value (various tumor cell lines) is given as “potent anticancer”.
For `CN[C@H](C(=O)N[C@H](C(=O)N(C)[C@H](/C=C(\C)C(=O)O)C(C)C)C(C)(C)C)C(C)(C)c1c[nH]c2ccccc12` [Hemiasterlins A & B and analogs], the IC50 (P388) is given as 0.4 ng/mL P388 and the IC50 (MCF-7 (breast)) is given as 0.3 to 3 nM.
For `CC/C=C\C=C/C(=O)N/C=C/CC1CC2CC(O)CC(Cc3cccc(O)c3C(=O)O1)O2` (stereo not shown) [Apicularen A], the IC50 (various tumor cell lines) is listed as “IC50's of 0.1 to 3 ng/mL”.
For `C/C(=C\c1csc(C)n1)[C@@H]1C[C@@H]2O[C@@H]2CCC[C@H](C)[C@H](O)[C@@H](C)C(=O)C(C)(C)[C@@H](O)CC(=O)O1` [Epothilone A], the IC50 (MCF-7/ADR) is listed as 27.1 nM, the IC50 [1] is listed as 2.1 nM and the IC50 (HCT-116) is listed as 3.2 nM. For the same compound, the IC50 (MCF-7 (breast)) was 1.5 nM.
In the case of `CO[C@@H](/C(C)=C/C=C/C(C)=C/c1coc(C)n1)[C@@H](C)[C@@H]1C[C@H](O)[C@@]2(C)O[C@@H]2/C=C/[C@@H](C)[C@H]2C[C@H](CC(=O)O2)C[C@H]2O[C@H]2C(=O)O1` [Rhizoxin], the “Toxicity (in words)” value is listed as “Rapid Drug”.
In the case of `CCCC1C(=O)O[C@H](/C(C)=C/c2csc(C)n2)C[C@@H]2O[C@]2(C)CCC[C@H](C)[C@H](O)[C@@H](C)C(=O)C(C)(C)[C@H]1O` (stereo partly shown) [ZK-EPO], the “activity against multi-drug/drug resistant cell lines (in words)” value (MDR cell lines) is listed as “active in drug”.
In the case of Didemnin B, the “Toxicity (in words)” value is listed as “cardiotoxicity;”, the MTD ([2]; in vivo) is listed as 6.3 mg/Kg; toxicity and the “activity against multi-drug/drug resistant cell lines (in words)” value (MDR cell lines) is listed as “Not potent against”. For the same compound, the t1/2 [3] was “cleared (t1/2 4.8 hrs”.
For `COc1ccc(C[C@H]2NC(=O)/C=C/C[C@@H]([C@H](C)[C@H]3O[C@@H]3c3ccccc3)OC(=O)[C@H](CC(C)C)OC(=O)CCNC2=O)cc1` [Arenastatin A analogs], the “Activity (IC50)” value (KB; KB (nasopharyngeal)) is given as 0.005 ng/mL and the IC50 (KB; KB, read-out: Activity (IC50)) is given as 8.7 nM.
For `CC(=O)O[C@H]1C(=O)[C@@]2(C)[C@H]([C@H](OC(=O)c3ccccc3)[C@]3(O)C[C@H](OC(=O)[C@H](O)[C@@H](NC(=O)c4ccccc4)c4ccccc4)C(C)=C1C3(C)C)[C@]1(OC(C)=O)CO[C@@H]1C[C@@H]2O` [Taxol], the “Toxicity (in words)” value (in vivo) is listed as “severe toxicity”.
For `C=C(Cl)/C=C/[C@@H](O)CC(=C)C[C@H]1O[C@@H]2[C@H](C)[C@@H](OC(=O)C[C@@H]3C[C@H](OC(C)=O)C[C@@]4(C[C@@](C)(O)C[C@H](CC(=C)[C@@H](C)C(OC(C)=O)[C@H](C)C(=O)C[C@@H]5C[C@H](OC)C[C@@]6(C[C@@H](O)C[C@H](/C=C\CCC[C@H]7O[C@](O)(C[C@H](O)[C@H]7C)[C@H]2O)O6)O5)O4)O3)[C@@H]1O` (stereo partly shown) [Spongistatin-1], the GI50 ([4]; NCI tumor panel, values or ends of the range over cell lines, read-out: GI50) is given as ≥ 0.025 nM and ≤ 0.035 nM.
In the case of `CCCCCCCCCCCCCCCC(=O)OC1CC(C(C)C(OC)/C(C)=C/C=C/C(C)=C/c2coc(C)n2)OC(=O)C2OC2CC2CC(=O)OC(C2)C(C)/C=C/C2OC21C` (stereo not shown) [Palmitoylrhizoxin], the “Toxicity (in words)” value is given as “binds LDL; less”.
For `C/C(=C\c1csc(C)n1)[C@@H]1C[C@@H]2O[C@]2(C)CCC[C@H](C)[C@H](O)[C@@H](C)C(=O)C(C)(C)[C@@H](O)CC(=O)O1` [Epothione B], the IC50 (MCF-7/ADR) is given as 2.92 nM, the “activity in cell culture (in words)” value (various tumor cell lines) is given as “broad activity” and the “clinical responses (in words)” value [5] is given as “partial”. For the same compound, the IC50 [1] was 0.19 nM, the t1/2 [3] was 2.5 h and the IC50 (HCT-116) was 0.42 nM. The IC50 (MCF-7 (breast)) was 0.18 nM.
For `CC[C@H](C)[C@@H]([C@@H](CC(=O)N1CCC[C@H]1[C@H](OC)[C@@H](C)C(=O)N[C@@H](Cc1ccccc1)c1nccs1)OC)N(C)C(=O)[C@@H](NC(=O)[C@H](C(C)C)N(C)C)C(C)C` [Dolastatin-10], the concentration with myelotoxicity (in vivo) is listed as “greater than 0.3 pM)”.
In the case of `CC(C)[C@H](NC(=O)[C@H](C(C)C)N(C)C)C(=O)N(C)[C@H](C(=O)N1CCC[C@H]1C(=O)N1CCC[C@H]1C(=O)NCc1ccccc1)C(C)C` [Cemadotin] (NMe2Val-V[NMeV]PP-NHBn), the “Toxicity (in words)” value is listed as “hypertension,” and the “activity in NCI tumor panel (in words)” value [4] is listed as “active in breast,”.
For `COc1cc2cc(c1Cl)N(C)C(=O)C[C@H](OC(=O)[C@H](C)N(C)C(C)=O)[C@]1(C)O[C@H]1[C@H](C)[C@@H]1C[C@@](O)(NC(=O)O1)[C@H](OC)/C=C/C=C(\C)C2` [Maytansine], the “Toxicity (in words)” value is listed as “severe toxicity”.
In the case of `COc1ccc(C[C@H]2NC(=O)/C=C/C[C@@H]([C@H](C)[C@@H](O)[C@@H](Cl)c3ccccc3)OC(=O)[C@H](CC(C)C)OC(=O)[C@H](C)CNC2=O)cc1Cl` [Cryptophycin 8], the “activity in cell culture (in words)” value (various tumor cell lines) is listed as “broad spectrum”.
For `CCCC1(O)C(O)C(C)C/C=C/C=C/C(CC(C)O)CCC2OC3(CCC(C)C(C(C)C(O)CC)O3)C(C)C(OC(=O)/C=C/C(C)C(O)C(C)C(O)C(OC3CCC(O)C(C)O3)C(O)C(O)C1O)C2C` (stereo not shown) [IB-96212], the IC50 (P388) is listed as 0.1 P388 ng/mL.
In the case of `CO[C@]12C=C[C@](C)(O1)[C@@H](OC(=O)/C=C/c1cn(C)cn1)C[C@H]1C(C)=CC[C@H](C(C)C)[C@H]1/C=C\2CO[C@@H]1OC[C@@H](O)[C@@H](O)[C@@H]1OC(C)=O` [Eleutherobins], the “activity against multi-drug/drug resistant cell lines (in words)” value (MDR cell lines) is listed as “taxol; not effective”.
For `C/C(=C\c1csc(CN)n1)[C@@H]1C[C@@H]2O[C@]2(C)CCC[C@H](C)[C@H](O)[C@@H](C)C(=O)C(C)(C)[C@@H](O)CC(=O)O1` [BMS-310705], the “Toxicity (in words)” value (in vivo) is given as “adverse events”, the IC50 (various tumor cell lines; broad activity, read-out: IC50) is given as 0.7 to 10 nM and the t1/2 [3] is given as 3.5 hrs; improved.
For `C=C(Cl)/C=C/[C@@H](O)CC(=C)C[C@H]1O[C@@H]2[C@H](C)[C@@H](OC(=O)C[C@@H]3C[C@H](OC(C)=O)C[C@@]4(C[C@@](C)(O)C[C@H](CC(=C)[C@@H](C)C(OC(C)=O)[C@H](C)C(=O)C[C@@H]5C[C@H](OC)C[C@@]6(C[C@@H](O)C[C@H](/C=C\CCC[C@H]7O[C@](O)(C[C@H](O)[C@H]7C)[C@H]2O)O6)O5)O4)O3)[C@@H]1O` (stereo partly shown) [Spongistatins (1-9)], the “activity in NCI tumor panel (in words)” value [4] is listed as “Most potent” and the GI50 ([4]; NCI panel cell line, read-out: mean GI50) is listed as 0.1 nM.
In the case of `CC[C@H](C)[C@@H]([C@@H](CC(=O)N1CCC[C@H]1[C@H](OC)[C@@H](C)C(=O)NCCc1ccccc1)OC)N(C)C(=O)[C@@H](NC(=O)[C@H](C(C)C)N(C)C)C(C)C` [soblidotin], the MTD ([2]; IV) is listed as “MTD was 1.8 mg/Kg” and the inhibition (various tumor cell lines; cell culture: colon, melanoma, M5076 tumors, P388, dose not reported) is listed as 75-85% inhibition.
For `COc1cc([C@@H]2c3cc4c(cc3[C@H](O)[C@H]3COC(=O)[C@H]23)OCO4)cc(OC)c1OC` [Podophyllotoxin], the “activity in cell culture (in words)” value (various tumor cell lines) is given as “in μM range”.
In the case of `C=C1C[C@@H]2CCO[C@H]3[C@@H]4O[C@H]5CC[C@H](CC(=O)O[C@@H]6[C@@H](C)[C@@H]7O[C@@H]8C[C@]9(C[C@@H]%10O[C@]%11(C[C@H](C)[C@@H]%12O[C@H](CC(=O)CCO)[C@H](O)C[C@@H]%12O%11)C[C@H](C)[C@@H]%10O9)O[C@@H]8C[C@@H]7O[C@H]6C[C@H]6O[C@@H](CC[C@@H]1O2)C[C@@H](C)C6=C)O[C@@H]5[C@@H]1OCC[C@H]3O[C@@H]14` [Isohomo-halichondrin B], the IC50 ([4]; NCI tumor panel) is listed as about 0.1 nM.
For `COc1ccc(C[C@H]2NC(=O)/C=C/C[C@@H]([C@H](C)[C@H]3O[C@@H]3c3ccccc3)OC(=O)[C@H](CC(C)C)OC(=O)C(C)(C)CNC2=O)cc1Cl` [Cryptophycin analogs (including 52, 55 and others)], the IC50 (various tumor cell lines; broad activity (lung, breast, colon, leukemia), read-out: IC50) is listed as 0.002 to 0.04 nM and the “activity against multi-drug/drug resistant cell lines (in words)” value (MDR cell lines) is listed as “pM; active against”.
For Halichondrin B, the “Toxicity (in words)” value (in vivo) is listed as “myelotoxicity dose”.
For `C=C1C[C@@H]2C[C@@H]3C[C@@H](O)C[C@@H](O3)c3coc(n3)/C=C/C[C@H]3O[C@@H](/C(C)=C/c4coc(C[C@]5(O)CC(OC)C[C@H]([C@H](O)/C=C(C)/C=C/C(C/C=C/Br)OC)O5)n4)[C@H](C)[C@@H](OC(=O)/C=C\C[C@@H](C1)O2)[C@H]3C` (stereo partly shown) [Phorboxazole A], the IC50 ([4]; NCI tumor panel) is given as 1 to 10 nM.
For `C/C(=C\c1csc(C)n1)[C@@H]1C[C@@H]2O[C@]2(C)CCC[C@H](C)[C@H](O)[C@@H](C)C(=O)C(C)(C)[C@@H](O)CC(=O)N1` [BMS-247550], the “Toxicity (in words)” value is listed as “sever toxicity” and the “clinical responses (in words)” value [5] is listed as “tumor (objective”.
In the case of Epothilone D, the “Toxicity (in words)” value is given as “emesis and anemia;”, the “activity in cell culture (in words)” value (various tumor cell lines) is given as “broad activity” and the IC50 [1] is given as 0.19 nM. For the same compound, the t1/2 [3] was “t1/2 of 5-10 hrs” and the IC50 (HCT-116) was 0.42 nM.
For `C=C1NC(=O)[C@H]([C@@H](C)CC)NC(=O)[C@@H]2CSSC[C@H](NC(=O)CCC(=O)O)C(=O)N[C@H](Cc3ccccc3)C(=O)N[C@H](C)C(=O)NC(C[C@@H](C)CC)C(=O)N[C@@H](C(=O)N[C@H](Cc3ccccc3)C(=O)N3CCC[C@H]3C(=O)N2)[C@@H](C)OC(=O)[C@H](CO)NC(=O)[C@H]([C@@H](C)OC)N(C)C(=O)[C@@H](C(C)C)NC(=O)[C@H](C[C@H](C)CC)NC1=O` (stereo partly shown) [Vitilevuamide] (Suc-C[dF][dA][X1][d(aThr)][dF]PCI[Dha][X2][dV][NMeT](Me)S; disulfide 1-8; ester 5-C), the IC50 (various tumor cell lines; panel of tumor cell lines HCT116, A549, SK-MEL-5, A498 cells, read-out: IC50) is given as 6 to 311 nM.
